We go through one compound from patent US20190070170A1, “METHOD OF S[…]-1” (Macau University of Science and Technology, priority 2017, published 2019).

Each structure is given as a SMILES string.

The subject of assay [1] is collagen-induced arthritis. The assay is described as follows: Collagen-II induced arthritis (CIA) in DBA/1 mice. The note with it: CIA DBA/1 mice; SIN 100 mg/kg i.p. The format is in vivo. The procedure: Female DBA/1 mice (8-9 weeks old) were purchased from Shanghai SiLaike (SLAC) Laboratory Animal Company (Shanghai, China) and fed with a chow diet and water at room temperature. Equal volume of complete Freuend's adjuvant (CFA) and Bovine Type II Collagen (CII) were mixed and emulsified using a homogenizer (13,000 rpm) on ice. On day 0, DBA/1 mice were immunized by injecting 50 μl of CII in CFA in the tail, approximately 2 cm from the base of the tail. After injection, on day 18, mice with one or more than one paw inflamed were chosen and randomly divided into model group, SIN (100 mg/kg, i.p.) treatment group and MTX (10 mg/kg/week, p.o) treatment group, the mice without immunization were used as normal control. On day 21, these chosen mice were boosted through injecting the same volume of CII in IFA same as the day 0 immunization procedure. The incidence of joint swelling in each group was recorded every two days since drug treatment. Paw thickness (at the ankle joints of the hind paws) of each mouse was obtained by using vernier caliper to record the severity of paw swelling.
Arthritis score of each paw was evaluated every two days during experiment with the following criteria: • 0: no evidence of erythema and swelling; • 1: erythema and mild swelling confirmed to the tarsals or ankle joint; • 2: erythema and mild swelling extending from the ankle to the tarsal joints; • 3: erythema and moderate swelling extending from the ankle to metatarsal joints; and • 4: erythema and severe swelling encompass the ankle, foot and digits, or ankylosis of the limb.
The score of each paw was summed for a score of 0-16 for each mouse. Mice were then sacrificed and hind paws were removed and freshly frozen in liquid nitrogen and stored at −80° C. until used.

Assay [2] relates to mitogen-activated protein kinase (MAPK). The experiment in a line: MAPK pathway (p-JNK, p-p38, p-ERK, p-c-Jun) in LPS-stimulated rat peritoneal macrophages (western blotting). The format is cell-based. As to conditions: SIN 1 h, LPS 1 μg/ml 15 min or 1 h. The procedure: (§1) Sprague-Dawley (SD) rats from the University of Hong Kong were housed in cages with free access to food and water. Peritoneal macrophages of SD rats were isolated as described in Liu J. et al., Pharmacological research 2016, 111:303-315. Briefly, untreated rats were sacrificed and after laparotomy, about 50 ml cold sterile Hank's balanced salt solution (HBSS) was used to lavage the peritoneal cavity at twice, and then the peritoneal lavage fluid was collected and centrifuged at 1500 rpm for 10 min. The cell pellets was suspended at a density 1.5×10^6 cells/ml in pre-hearted DMEM medium with 10% heat-inactivated FBS, penicillin G (100 units/ml), streptomycin ([…]), and L-glutamine (2 mM), followed by seeding in 6-well plates at a density of 4.5×10^6 cells and incubation for 2 h. Then the medium were discarded to remove the non-adherent cells. The adherent cells were further washed for two times with pre-heated DMEM medium to remove floating cells. Next, cells were pre-treated with various concentration of SIN for 1 h, followed by stimulation with LPS (1 μg/ml).
Whole-cell and nuclear proteins were obtained using RIPA lysis buffer (CST, Boston, Mass., USA) and Nuclear and Cytoplasmic Extraction Reagents kit from Thermo Scientific (Asheville, N.C., USA), respectively. […] The levels of protein expression were measured using Odyssey v3.0 software from Li-COR (Lincoln, Nebr., USA).

The next assay relates to COX-2. The experiment in a line: COX-2 mRNA level in LPS-activated rat peritoneal macrophages (qRT-PCR). It is filed as cell-based. The note with it: SIN 1 h, LPS 12 h. The procedure:
(§2) Peritoneal macrophages were cultured in 6-well plates and pre-treated with the indicated concentration of SIN for 1 h, followed by LPS stimulation for another 12 h. RNA was isolated from rat peritoneal macrophages using the Nucleospin RNA kit from Macherey-Nagel (Duren, Germany) according to the manufacturer's instructions. RNA concentration derived from each sample was assessed by NanoDrop UV Spectrophotometer from Thermo Scientific (Asheville, N.C., USA). RNA (1 μg) was reverse transcripted using the transcriptor universal cDNA master reagents from Roche Applied Science (Mannheim, Germany). Gene expression quantification was performed by a high-productivity real-time quantitative PCR ViiA™ 7 machine using SYBR Green reagents from Roche Applied Science (Mannheim, Germany) according a standard protocol recommended by the manufacturer and the cycling parameters were as followed: uracil removal incubation (50° C., 2 min), polymerase activation (95° C., 10 min), 40 cycles of denaturation (95° C., 15 s) and annealing/extension (60° C., 30 s) and a melt curve stage (95° C., 15 s, 60° C., 1 min and 95° C., 15 s).
(§3) Rat primers used in the research are listed as follows:
(§4) • The levels of gene expression were quantitated using the 2(−Delta Delta C(T)) method. […]

The next assay deals with PGE2. The assay is described as follows: PGE2 production in LPS-stimulated rat peritoneal macrophages (ELISA). The format is cell-based. As to conditions: SIN 160, 320 or 640 μM or 0.5 μM DEX 1 h, then LPS 1 μg/ml 24 h. The procedure: as §1
RAW264.7 cells and rat peritoneal macrophages were seeded in a 96-well plate at density of 1.4×10^4 and 1.5×10^5 cells, respectively. […] The optical density was measured at 570 nm against a reference wavelength of 650 nm using a microplate UV/VIS spectrophotometer (Tecan, Mannedorf, Switzerland). […]

Another assay relates to mPGES-1. The assay is described as follows: mPGES-1 mRNA level in LPS-activated rat peritoneal macrophages (qRT-PCR). As to conditions: SIN 1 h, LPS 12 h. The format is cell-based. The procedure: as §2, §3, §4

Take `COC1=C[C@@H]2[C@@H]3Cc4ccc(OC)c(O)c4[C@]2(CCN3C)CC1=O` [SIN, sinomenine]: in assay [1], the “arthritic scores (total of four paws)” value was “decreased”, the “average thickness of the inflamed hind paws” value is “decreased average thickness” and the “onset of joint swelling (incidence of arthritis)” value is recorded as “delayed the onset of the joint swelling”. In addition, the “influence on MAPK pathway” value in assay [2] is reported as “No observable effects”. For the same compound, the “gene level of COX-2 (mRNA)” value in the assay on COX-2 is given as “did not suppress”. Also, in the assay with PGE2, the PGE2 production entry is “significant inhibition of PGE2 production in a dose dependent manner”. For the same compound, in the assay with mPGES-1, the “mPGES-1 gene expression (mRNA)” value was “significantly and dose-dependently inhibited”.
